Experimental data taken from patent publication US6028197A, “Dibenzo[a,g]quinolizinium derivatives and the salts thereof” (Hanwha Corporation, priority 1998, dated 2000).

target: T1, sterol 14-reductase (Rattus norvegicus, UniProt A0ACM8Q6X4); experiment: Inhibition of sterol 14-reductase in rat liver microsomes; format: biochemical; conditions: microsomes; read-out: Enzyme Activity (relative in vitro activity for sterol 14-reductase, IC50 class)
T1 construct: microsome which was used as an enzyme source of sterol 14-reductase; from tissue; host or cells: liver microsomes of male Sprague-Dawley rats fed lovastatin and cholestyramine
T1 sequence (A0ACM8Q6X4 1-418): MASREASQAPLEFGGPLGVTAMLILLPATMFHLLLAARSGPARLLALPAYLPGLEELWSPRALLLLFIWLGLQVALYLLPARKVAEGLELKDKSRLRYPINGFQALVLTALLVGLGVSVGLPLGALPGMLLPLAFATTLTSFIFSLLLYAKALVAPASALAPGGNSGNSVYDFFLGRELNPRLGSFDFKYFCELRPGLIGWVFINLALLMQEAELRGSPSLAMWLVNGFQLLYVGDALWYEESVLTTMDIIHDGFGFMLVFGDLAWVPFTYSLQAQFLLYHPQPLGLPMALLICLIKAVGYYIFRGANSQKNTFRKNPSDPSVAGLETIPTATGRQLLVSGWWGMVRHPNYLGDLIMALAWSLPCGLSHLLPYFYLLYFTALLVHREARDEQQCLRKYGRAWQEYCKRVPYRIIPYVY

| IC50 [µM] | Structure (SMILES) |
| --- | --- |
| 10 to 100 | CCc1c2[n+](cc3c(OCc4ccc(C)c([N+](=O)[O-])c4)c(OC)ccc13)CCc1cc3c(cc1-2)OCO3 [Compound No. 49, 5,6-dihydro-2,3-methylenedioxybenzo[a]-13-ethyl-10-methoxy-9-(4-methyl-3-nitro)benzyloxybenzo[g]quinolizinium iodide] |
| > 100 | CCc1c2[n+](cc3c(OCc4ccccc4C(F)(F)F)c(OC)ccc13)CCc1cc(OC)c(OC)cc1-2 [Compound No. 33, 5,6-dihydro-2,3-dimethoxybenzo[a]-13-ethyl-10-methoxy-9-(2-trifluoromethyl)benzyloxybenzo[g]quinolizinium chloride] |

same assay, conditions: read-out: Enzyme Activity (relative in vitro activity for sterol 14-reductase, IC50 class)

| Structure (SMILES) | IC50 [µM] |
| --- | --- |
| CCc1c2[n+](cc3c(OCc4c(F)c(F)c(F)c(F)c4F)c(OC)ccc13)CCc1cc(OC)c(OC)cc1-2 [Compound No. 70, 5,6-dihydro-2,3-dimethoxybenzo[a]-13-ethyl-10-methoxy-9-(2,3,4,5,6-pentafluoro)benzyloxybenzo[g]quinolizinium acetate] | 10 to 100 |
| CCc1c2[n+](cc3c(OCc4cc(C)ccc4[N+](=O)[O-])c(OC)ccc13)CCc1cc(OC)c(OC)cc1-2 [Compound No. 25, 5,6-dihydro-2,3-dimethoxybenzo[a]-13-ethyl-10-methoxy-9-(5-methyl-2-nitro)benzyloxybenzo[g]quinolizinium chloride] | > 100 |
| CCc1c2[n+](cc3c(OCc4ccc(OCc5ccccc5)cc4)c(OC)ccc13)CCc1cc(OC)c(OC)cc1-2 [Compound No. 14, 5,6-dihydro-2,3-dimethoxybenzo[a]-9-(4-benzyloxy)-benzyloxy-13-ethyl-10-methoxybenzo[g]quinolizinium chloride] | > 100 |
| C=CCOc1c(OC)ccc2c(CC)c3[n+](cc12)CCc1cc(OC)c(OC)cc1-3 [Compound No. 26, 5,6-dihydro-2,3-dimethoxybenzo[a]-13-ethyl-10-methoxy-9-allyloxybenzo[g]quinolizinium chloride] | > 100 |
| CCc1c2[n+](cc3c(OCc4ccc(C(C)C)cc4)c(OC)ccc13)CCc1cc(OC)c(OC)cc1-2 [Compound No. 30, 5,6-dihydro-2,3-dimethoxybenzo[a]-13-ethyl-9-[4-(i-propyl)benzyloxy]-10-methoxybenzo[g]quinolizinium chloride] | > 100 |
| CCc1c2[n+](cc3c(OCc4cccc(OC)c4)c(OC)ccc13)CCc1cc(OC)c(OC)cc1-2 [Compound No. 12, 5,6-dihydro-2,3-dimethoxybenzo[a]-13-ethyl-10-methoxy-9-(3-methoxy)benzyloxybenzo[g]quinolizinium chloride] | > 100 |
| CCc1c2[n+](cc3c(OCc4c(F)c(F)c(C(F)(F)F)c(F)c4F)c(OC)ccc13)CCc1cc3c(cc1-2)OCO3 [Compound No. 52, 5,6-dihydro-2,3-methylenedioxybenzo[a]-13-ethyl-10-methoxy-9-(2,3,5,6-tetrafluoro-4-trifluoromethyl)benzyloxybenzo[g]quinolizinium iodide] | 10 to 100 |
| CCc1c2[n+](cc3c(OCc4ccc(C)c(C)c4)c(OC)ccc13)CCc1cc(OC)c(OC)cc1-2 [compound 27, 5,6-dihydro-2,3-dimethoxybenzo[a]-9-(3,4-dimethyl)benzyloxy-13-ethyl-10-methoxybenzo[g]quinolizinium chloride] | > 100 |
| CCc1c2[n+](cc3c(OCc4cc([N+](=O)[O-])ccc4OC)c(OC)ccc13)CCc1cc(OC)c(OC)cc1-2 [Compound No. 7, 5,6-dihydro-2,3-dimethoxybenzo[a]-13-ethyl-10-methoxy-9-(2-methoxy-5-nitro)benzyloxybenzo[g]quinolizinium chloride] | 10 to 100 |
| CCc1c2[n+](cc3c(OCc4ccc(F)cc4Cl)c(OC)ccc13)CCc1cc(OC)c(OC)cc1-2 [Compound No. 10, 5,6-dihydro-2,3-dimethoxybenzo[a]-9-(2-chloro-4-fluro)benzyloxy-13-ethyl-10-methoxybenzo[g]quinolizinium chloride] | 10 to 100 |

Continued, values first:

| IC50 [µM] | Structure (SMILES) |
| --- | --- |
| 10 to 100 | CCc1c2[n+](cc3c(OCc4cccc(Br)c4)c(OC)ccc13)CCc1cc(OC)c(OC)cc1-2 [Compound No. 34, 5,6-dihydro-2,3-dimethoxybenzo[a]-9-(3-bromo)-benzyloxy-13-ethyl-10-methoxybenzo[g]quinolizinium chloride] |
| < 1 | CCc1c2[n+](cc3c(OCc4cc(OC)c(OC)cc4[N+](=O)[O-])c(OC)ccc13)CCc1cc3c(cc1-2)OCO3 [Compound No. 48, 5,6-dihydro-2,3-methylenedioxybenzo[a]-9-(4,5-dimethoxy-2-nitro)benzyloxy-13-ethyl-10-methoxybenzo[g]-quinolizinium iodide] |
| 10 to 100 | CCCOc1cc2c(cc1OCCC)-c1c(CC)c3ccc(OCCC)c(OCc4ccc(C(C)(C)C)cc4)c3c[n+]1CC2 [Compound No. 66, 5,6-dihydro-2,3-dipropoxybenzo[a]-9-[4-(tert-butyl)benzyloxy]-13-ethyl-10-propoxybenzo[g]quinolizinium chloride] |
| < 1 | CCc1c2[n+](cc3c(OCc4cc(OC)c(OC)cc4[N+](=O)[O-])c(OC)ccc13)CCc1cc(OC)c(OC)cc1-2 [Compound No. 5, 5,6-dihydro-2,3-dimethoxybenzo[a]-9-(4,5-dimethoxy-2-nitro)benzyloxy-13-ethyl-10-methoxybenzo[g]-quinolizinium chloride] |
| 10 to 100 | CCc1c2[n+](cc3c(OCc4c(F)cccc4Cl)c(OC)ccc13)CCc1cc(OC)c(OC)cc1-2 [Compound No. 23, 5,6-dihydro-2,3-dimethoxybenzo[a]-9-(2-chloro-6-fluoro)benzyloxy-13-ethyl-10-methoxybenzo[g]quinolizinium chloride] |
| < 1 | CCc1c2[n+](cc3c(OCc4c(F)c(F)c(C(F)(F)F)c(F)c4F)c(OC)ccc13)CCc1cc(O)c(O)cc1-2 [Compound No. 60, 5,6-dihydro-2,3-dihydroxybenzo[a]-13-ethyl-10-methoxy-9-(2,3,5,6-tetrafluoro-4-trifluoromethyl)benzyloxybenzo[g]quinolizinium chloride] |
| < 1 | CCc1c2[n+](cc3c(OCc4c(F)c(F)c(C(F)(F)F)c(F)c4F)c(OC)ccc13)CCc1cc(OC)c(OC)cc1-2 [Compound No. 13, 5,6-dihydro-2,3-dimethoxybenzo[a]-13-ethyl-10-methoxy-9-(2,3,5,6-tetrafluoro-4-trifluoromethyl)benzyloxy-benzo[g]quinolizinium chloride] |
| 10 to 100 | CCOc1cc2c(cc1OCC)-c1c(CC)c3ccc(OCC)c(OCc4cccc(C(F)(F)F)c4)c3c[n+]1CC2 [Compound No. 63, 5,6-dihydro-2,3-diethoxybenzo[a]-10-ethoxy-13-ethyl-9-(3-trifluoromethyl)benzyloxyenzo[g]quinolizinium chloride] |
| 10 to 100 | CCc1c2[n+](cc3c(OCc4ccc5ccccc5n4)c(OC)ccc13)CCc1cc(OC)c(OC)cc1-2 [Compound No. 36, 5,6-dihydro-2,3-dimethoxybenzo[a]-13-ethyl-10-methoxy-9-(quinolin-2-yl)methoxybenzo[g]quinolizinium chloride] |
| < 1 | CCc1c2[n+](cc3c(OCc4cccc(C(F)(F)F)c4)c(OC)ccc13)CCc1cc(OC)c(OC)cc1-2 [Compound No. 11, 5,6-dihydro-2,3-dimethoxybenzo[a]-13-ethyl-10-methoxy-9-(3-trifluoromethyl)benzyloxybenzo[g]quinolizinium chloride] |
| 10 to 100 | CCc1c2[n+](cc3c(OCc4cccc(C(F)(F)F)c4)c(OC)ccc13)CCc1cc3c(cc1-2)OCO3 [Compound No. 51, 5,6-dihydro-2,3-methylenedioxybenzo[a]-13-ethyl-10-methoxy-9-(3-trifluoromethyl)benzyloxybenzo[g]quinolizinium iodide] |
| 10 to 100 | CCCOc1cc2c(cc1OCCC)-c1c(CC)c3ccc(OCCC)c(OCc4c(F)c(F)c(F)c(F)c4F)c3c[n+]1CC2 [Compound No. 67, 5,6-dihydro-2,3-dipropoxybenzo[a]-13-ethyl-9-(2,3,4,5,6-pentafluoro)benzyloxy-10-propoxybenzo[g]quinolizinium chloride] |
| < 1 | CCc1c2[n+](cc3c(OCc4ccc(C(C)(C)C)cc4)c(OC)ccc13)CCc1cc3c(cc1-2)OCO3 [Compound No. 46, 5,6-dihydro-2,3-methylenedioxybenzo[a]-9-[(4-tert-butyl)benzyloxy]-13-ethyl-10-methoxybenzo[g]quinolizinium iodide] |
| < 1 | CCc1c2[n+](cc3c(OCc4ccc(Cl)nc4)c(OC)ccc13)CCc1cc(OC)c(OC)cc1-2 [Compound No. 17, 5,6-dihydro-2,3-dimethoxybenzo[a]-9-(6-chloropyridine-3-yl)methoxy-13-ethyl-10-methoxybenzo[g]quinoli-zinium chloride] |
| < 1 | CCc1c2[n+](cc3c(OCc4ccc(-c5ccccc5)cc4)c(OC)ccc13)CCc1cc(OC)c(OC)cc1-2 [Compound No. 16, 5,6-dihydro-2,3-dimethoxybenzo[a]-13-ethyl-10-methoxy-9-(4-phenyl)benzyloxybenzo[g]quinolizinium chloride] |
| < 1 | CCc1c2[n+](cc3c(OCc4c(F)c(F)c(F)c(F)c4F)c(OC)ccc13)CCc1cc3c(cc1-2)OCO3 [Compound No. 47, 5,6-dihydro-2,3-methylenedioxybenzo[a]-13-ethyl-10-methoxy-9-(2,3,4,5,6-pentafluoro)benzyloxybenzo[g]-quinolizinium iodide] |
